Experimental data from patent US7445931B2, “Compositions and methods for enrichment of neural stem cells using ceramide analogs” (Bresagen, Inc., priority 2002, dated 2008).

Legend:
sfEBMs in suspension = test: S18 treatment of sfEBMs in suspension, histology and immunocytochemistry; type: cell-based, human
Method: To perform immunostaining on fixed cells or cytospins, the samples were washed in block buffer (3% goat serum, 1% polyvinyl Pyrolidone, 0.3% Triton X-100 in wash buffer) for 30 minutes, and then incubated with the appropriate dilution of the primary antibody, or combination of antibodies for 4-6 hours at room temperature. The primary antibodies were anti-Map2, a mouse monoclonal antibody recognizing the Map-2 a, b and c isoforms (Sigma, Catalog # M4403) at a 1/500 dilution; anti-Nestin, a rabbit polyclonal antibody (Chemicon, Catalog # AB5922) at a 1/200 dilution; anti-Oct-4, a rabbit polyclonal antibody (Santa Cruz, Catalog # sc-9081) at a 1/200 dilution; sheep anti-Tyrosine Hydroxlyase (TH) antibody (Pel-Freez, Catalog # P60101-0) at a 1/500 dilution; anti-phosphoHistoneH3, a rabbit polyclonal antibody (Upstate, Catalog, # 06-570) at a 1/400 dilution; anti-SSEA4, a mouse monoclonal antibody (Developmental Studies Hybridoma Bank, Catalog # MC-813-70) at a ⅕ dilution. The cells were then washed in wash buffer (50 mM Tris-HCL pH 7.5, and 2.5 mM NaCl) 3 times for 5 minutes each wash. The cells were then incubated for a minimum of 2 hours in secondary antibodies diluted 1:1000, followed by washing in wash buffer. The secondary antibodies were appropriate combinations of Alexa-350 (blue), -488 (green) or -568 (red) conjugated goat anti-chicken, anti-rabbit, anti-sheep or anti-mouse antibodies, all available from Molecular Probes. Some samples were stained with 5 ng/ml DAPI to detect cell nuclei, and were then washed from overnight to 2 days in a large volume of wash buffer. The slides were mounted with mounting medium and a cover slip. Slides were visualized using either a NIKON TS100 inverted microscope or a NIKON TE 2000-S inverted microscope with a Q Imaging digital camera
Essentially serum free embryoid bodies (sfEBMs) were generated as described in Example 6, and were exposed to S18 at different stages of their development in order to assess the timing of depletion of high Oct-4 expressing cells, and in order to determine when neural rosettes could be selected. The sfEBMs in suspension were treated with 10 μM S18 in 50% DMEM/F12, 50% MEDII, supplemented with 1×N2, Glutamine (20 mM), penicillin (0.5 U/ml), and streptomycin (0.5 U/ml) for varying amounts of time, and the sfEBMs were then evaluated histologically and by immunocytochemistry.
Essentially serum free embryoid bodies were derived from protease passaged cells and grown in the presence of 50% MEDII conditioned medium. The embryoid bodies were exposed to 10 μM S18 in the same medium from day 6 to 9 after derivation. At day 9 the S18 treated sfFBMs and matched control sfEBMs not exposed to S18 were fixed, embedded in plastic, cut to 3 micron sections and stained with DAPI to enable the precise determination of the proportion of the total healthy nuclei of an sfEBM that were rosette cell nuclei.

[1] = system: differentiating ES cells (NPs), PAR-4; test: S18-induced apoptosis (TUNEL) in NPs after PAR-4 antisense knockdown or PAR-4-RFP overexpression; type: cell-based, mouse
Method: For construction of PAR-4-REP cDNA, RT-PCR was performed with the oligonucleotide primer pair sense 5′atggcgaccggcggctatcg3′ (SEQ ID NO:14) and antisense 5′ctaccttgtcagctgcccaacaac3′(SEQ ID NO:15), using the first strand cDNA generated from embryoid bodies (EB8 stage) as template for the amplification reaction. The primers were endowed with the restriction enzyme cleaving sites Eco47III (sense) and SaII (antisense) for ligation of the PAR-4 specific amplification product into the multiple cloning site of HcRFP, a vector that encodes a far-red shifted variant of red fluorescent protein (Clontech). Differentiating ES cells at the NP1 stage were transfected with the PAR-4-RFP construct using the lipofectamine 2000 procedure according to the manufacturer's instructions (Invitrogen). The transfected cells were incubated in DMEM F12 (50/50), supplemented with 1×N2 and 20 ng/ml FGF-2, and the TUNEL assay or immunostainings were performed after 48 hours of incubation and NP formation. For depletion of ceramide, differentiating ES cell were incubated with 25 μM fumonisin B1 or 50 nM myriocin 48 hours prior to transfection with the PAR-4-RFP vector, and the inhibitor maintained in the medium throughout the post-transfection period. For induction of apoptosis, the novel ceramide analog S18 (40-100 μM), N-acetyl sphingosine (C2-ceramide, 10-30 μM), or natural ceramide isolated from EBs (0.5-1.5 μM) was added 48 hours after transfection with the PAR-4-RFP cDNA, and the degree of apoptosis quantified after 15-20 hours using TUNEL assays with paraformaldehyde-fixed cells as described above.
Endogenous expression of PAR-4 was suppressed by transfection of differentiating ES cells at the NP1 stage with 2 nmoles (per well in 24 wells plate) of the morpholino-based antisense oligonucleotide 5′cgatagccgccggtcgccatgttcc3′(SEQ ID NO:16) (see Guo et al., 1998, Nature Med., 4:957-962; Guo et al., 2001 Brain Res, 903:13-25) following the instructions of the manufacturer (GeneTools) in 0.5 ml of serum-free DMEM/F-12, 1XN2 supplemented with 20 ng/ml FGF-2. For induction of apoptosis, the novel ceramide analog S18 (40-100), N-acetyl sphingosine (C2 ceramide, […], or natural ceramide isolated from EBs (0.5-1.5 μM) was added 48 hours after transfection with the anti-PAR-4 morpholino, and the degree of apoptosis quantified after 15-20 hours using TUNEL assays with paraformaldehyde-fixed cells as described above.

[2] = sfEBMs at day 14, 48 hours exposure to 10 μM S18

CCCCCCCC/C=C\CCCCCCCC(=O)NC(CO)CO [S18, N-(2-hydroxy-1-(hydroxymethyl)ethyl)-oleoylamide]
viable embryoid bodies derived from monolayer crater cells (sfEBMs in suspension; 10 μM S18, four days): No viable embryoid bodies were observed
regions of high Oct-4 expression (residual pluripotent cells) (sfEBMs in suspension; S18 selected sfEBM (10 μM) seeded at day 21, anti-Oct-4 staining): no regions of high Oct-4 expression could be detected
mitotic activity of neural rosette precursor cells (phosphoHistone H3) (sfEBMs in suspension; day 28 after derivation, 8 days after withdrawal of S18): still mitotically active
presumptive dopaminergic neurons or their precursors (anti-TH staining) (sfEBMs in suspension; exposure to 10 μM S18): not ablated
apoptosis in sfEBMs (sfEBMs in suspension; [2]): extensive apoptosis in the bodies
morphology of rosette regions (sfEBMs in suspension; [2]): morphologically normal
population surviving incubation (DAPI stained sections) (sfEBMs in suspension; sfEBMs from protease passaged cells, 10 μM S18 from day 6 to 9): a very pure population of neural precursor rosette cells had survived
ceramide analog-induced apoptosis in untransfected or mock (RFP)-transfected cells ([1]; 40 μM S18): no or only a low degree
number of apoptotic cells ([1]; 80 μM S18, control morpholino-transfected and untransfected NPs): more than 80%
apoptosis in PAR-4-RFP transfected cells ([1]; myriocin-treated ES cells transfected at NP1 stage, 40 μM S18): apoptosis was observed
